Assay results taken from US20100240754A1, “UNSATURATED FATTY AMINO ACID DERIVATIVES AND USE THEREOF IN DERMAL COSMETOLOGY” (Pierre Fabre Demo-Cosmetique, priority 2007, published 2010).

Key:
Assay type in all cases: cell-based, murine
[1] = test system: fibroblast cell line L929; test: In vitro assay of intracellular OASes (H2DCF-DA probe) after H2O2/iron oxidative stress; settings: dose 400 μg/mL; L929, H2O2/iron stress
Text: We have set up a model for an in vitro study of oxidative stress induced by H2O2/iron, H2O2 which massively generates intracellular OASes by a chain reaction triggered by the oxidation of membrane lipids.
This technique is based on the use of a fluorescent probe, 6-carboxy-2′, 7′ dichlorodihydrofluorescein diacetate, di(acetoxymethyl ester) (H2DCF-DA), which, once it has penetrated the cell, is deacetylated by the intracellular esterases then forming H2DCF. This product is oxidized by intracellular OASes into a highly fluorescent compound: 2′,7′-dichlorofluorescein, (DCF) (Suematsu M et al, 1996, Free Radicals Practical Approach, Punchard ed. P83-99).
Cutaneous murine fibroblast cell line L929.
The tested concentrations are non-cytotoxic concentrations. Cytoxicity was evaluated by the neutral red method, after incubation of the product for 3 hours.
The reference anti-radical product is vitamin E or α-tocopherol (MW: 430.7) (SIGMA, ref.: T-1539).
The mother solution is prepared at 400 mg/mL in DMSO and stored at −20° C. The pretreatment solution is prepared extemporaneously at 400 μg/mL in a culture medium without FCS.
For evaluating unsaturated fatty amino acid derivatives, the dilutions are prepared in the culture medium extemporaneously for a range of concentrations of 0.02, 0.2, 2 and 20 ng/mL.
The cells of the fibroblast line L929 are sown in microplates with 96 wells with a flat bottom in 100 μL of DMEM supplemented with 10% of FCS, and they are then incubated overnight at 37° C. in a humid atmosphere with 5% CO2.
The dilutions of the products to be tested and of the reference molecule are conducted in culture mediums without FCS, and then deposited in 7 wells in an amount of 100 μL per well.
The cells are then incubated for 3 hours at 37° C. in a humid atmosphere with 5% CO2.
The cells are rinsed with PBS 1× in an amount of 100 μL per well. Next they are set to incubate for 30 min at 37° C. in a humid atmosphere with 5% CO2 and with 50 μL of H2DCF-DA probe at 5 μM.
After 30 min in contact with the probe alone, the cells are incubated for 30 min at 37° C. in a humid atmosphere with […] with addition of 25 μL of H2O2 at 800 μM and 25 μL of 8 mM ferrous and ferric iron solution, in order to have final concentrations of 200 μM of H2O2 and 2 mM of ferrous and ferric iron.
The cells are then rinsed with PBS 1× in an amount of 100 μL per well, and then incubated for 30 min at 37° C. in a humid atmosphere with 5% CO2 and with 100 μL of PBS 1×.
These 1 h 30 minutes of incubation at 37° C. allow the intracellular esterases to deacetylate the H2DCF probe, oxidizable by intracellular OASes into DCF; a fluorescent compound, the formation of which is proportional to the amount of intracellular OASes.
The fluorescence intensity is read with the cytofluorimeter at λexcitation=485 nm and λemission=530 nm. It reflects the amount of produced intracellular OASes.
With the below ratio, it is possible to calculate for each concentration of tested product the % of protection against production of intracellular OASes (since the fluorescence intensity or FI expresses intracellular release of OASes).
The values indicated in Table 3 are percentages of inhibition of intracellular OAS production following an exogenous oxidative stress, relatively to <> cells (100%) and to <> cells (0%).

fibroblast line L929 = test: Test of TBARS: lipid peroxidation after H2O2-Fe2+/Fe3+ stress; settings: 400 μg/mL
B16-F10 line = test: Synthesis of melanin, colorimetric assay, basal and after alpha MSH stimulation; settings: Mus musculus, alpha MSH-stimulated B16-F10, read-out: inhibition of melanogenesis
Method: 6.1) The modulating effect of unsaturated fatty amino-acid derivatives on melanogenesis was analyzed. For this, a measurement of the synthesis of melanin by a colorimetric assay is carried out on a cell line of murine melanomas: the B16-F10 line.
The effect of the products is investigated in a basal situation and after stimulating melanogenesis by a MSH for determining the depigmenting power.
The level of extracellular and intracellular melanin is then measured by spectrophotometry at a wave length of 405 nm according to the procedure (Meun, Y. J. et al.). The amount of pigment is determined by a standard range of melanin and by analysis on the Microwin software package (Berthold Biotechnologies). An assay of total proteins is conducted for samples of intracellular melanin by the BCA-Copper method at 540 nm. The standard range is produced with a standard protein, BSA (Bovine Albumin Serum).

With `Cc1c(C)c2c(c(C)c1O)CC[C@@](C)(CCC[C@H](C)CCC[C@H](C)CCCC(C)C)O2` [Vitamin E, α-tocopherol, reference compound] the “percentage of inhibition of intracellular OAS production (protection)” value [1] was 31% and the “protection against lipid peroxidation, in words” value (fibroblast line L929) was “very effectively protects cell membranes”.
`Oc1ccc(O)cc1` [hydroquinone, reference compound] showed an inhibition at 1 µg/mL (B16-F10 line; 1 μg/mL) of roughly 60%.
Compound `O=C1O[C@H]([C@@H](O)CO)C(O)=C1O` [vitamin C, reference compound] has an inhibition at 40 µg/mL (B16-F10 line; 40 μg/mL) of roughly 60%.
